Legend:
Assay in all cases: biochemical
Set-up in all cases: Thermo Fisher in vitro kinase panel, per cent inhibition of kinase activity at 10 uM
FER = FER (Homo sapiens, UniProt P16591)
Description: (§1) Kinase profiling of SMER28 and analogs SMER28 and analogs were tested at 10 µM in a panel of 123 kinases at ThermoFisher Scientific. Follow-up of selected kinases for SMER28 and analogs was also performed at ThermoFisher Scientific. Data are shown in Supplementary Data 2 and 3. […] An inhibition of PIK3C could induce autophagy, mediated by signaling through the AKT/mTOR axis[45].

PRKCA (PKC alpha) = PRKCA (PKC alpha) (Homo sapiens, UniProt P17252)
Description: as §1

BTK = BTK (Homo sapiens, UniProt Q06187)
Description: as §1

BMX = BMX (Homo sapiens, UniProt P51813)
Description: as §1

SRPK1 = SRPK1 (Homo sapiens, UniProt Q96SB4)
Description: as §1

LCK = LCK (Homo sapiens, UniProt P06239)
Description: as §1

CDK1/cyclin B = CDK1/cyclin B (Homo sapiens, UniProt P06493)
Description: as §1

FLT1 (VEGFR1) = FLT1 (VEGFR1) (Homo sapiens, UniProt P17948)
Description: as §1

EPHB1 = EPHB1 (Homo sapiens, UniProt P54762)
Description: as §1

AMPK A2/B1/G1 = biological target: T1, AMPK A2/B1/G1 (Homo sapiens, UniProt P54646)
T1 construct: gene PRKAA2
Description: as §1

NTRK1 (TRKA) = NTRK1 (TRKA) (Homo sapiens, UniProt P04629)
Description: as §1

KIT = KIT (Homo sapiens, UniProt P10721)
Description: as §1

ALK = ALK (Homo sapiens, UniProt Q9UM73)
Description: as §1

CDK2/cyclin A = CDK2/cyclin A (Homo sapiens, UniProt P24941)
Description: as §1

PIK3C3 (hVPS34) = PIK3C3 (hVPS34) (Homo sapiens, UniProt Q8NEB9)
Description: as §1

MARK2 = MARK2 (Homo sapiens, UniProt Q7KZI7)
Description: as §1

LYN A = biological target: T2, LYN A (Homo sapiens, UniProt P07948)
T2 construct: isoform A
Description: as §1

ROCK1 = ROCK1 (Homo sapiens, UniProt Q13464)
Description: as §1

FYN = FYN (Homo sapiens, UniProt P06241)
Description: as §1

RET V804M = RET V804M (Homo sapiens, UniProt P07949, V804M)
Description: as §1

DNA-PK = biological target: T3, DNA-PK (Homo sapiens, UniProt P78527)
T3 construct: gene PRKDC
Description: as §1

TYRO3 (RSE) = TYRO3 (RSE) (Homo sapiens, UniProt Q06418)
Description: as §1

CAMK2B (CaMKII beta) = CAMK2B (CaMKII beta) (Homo sapiens, UniProt Q13554)
Description: as §1

FGFR1 = FGFR1 (Homo sapiens, UniProt P11362)
Description: as §1

MAPK8 (JNK1) = MAPK8 (JNK1) (Homo sapiens, UniProt P45983)
Description: as §1

YES1 = YES1 (Homo sapiens, UniProt P07947)
Description: as §1

Chain of MARK2 (Q7KZI7 whole entry): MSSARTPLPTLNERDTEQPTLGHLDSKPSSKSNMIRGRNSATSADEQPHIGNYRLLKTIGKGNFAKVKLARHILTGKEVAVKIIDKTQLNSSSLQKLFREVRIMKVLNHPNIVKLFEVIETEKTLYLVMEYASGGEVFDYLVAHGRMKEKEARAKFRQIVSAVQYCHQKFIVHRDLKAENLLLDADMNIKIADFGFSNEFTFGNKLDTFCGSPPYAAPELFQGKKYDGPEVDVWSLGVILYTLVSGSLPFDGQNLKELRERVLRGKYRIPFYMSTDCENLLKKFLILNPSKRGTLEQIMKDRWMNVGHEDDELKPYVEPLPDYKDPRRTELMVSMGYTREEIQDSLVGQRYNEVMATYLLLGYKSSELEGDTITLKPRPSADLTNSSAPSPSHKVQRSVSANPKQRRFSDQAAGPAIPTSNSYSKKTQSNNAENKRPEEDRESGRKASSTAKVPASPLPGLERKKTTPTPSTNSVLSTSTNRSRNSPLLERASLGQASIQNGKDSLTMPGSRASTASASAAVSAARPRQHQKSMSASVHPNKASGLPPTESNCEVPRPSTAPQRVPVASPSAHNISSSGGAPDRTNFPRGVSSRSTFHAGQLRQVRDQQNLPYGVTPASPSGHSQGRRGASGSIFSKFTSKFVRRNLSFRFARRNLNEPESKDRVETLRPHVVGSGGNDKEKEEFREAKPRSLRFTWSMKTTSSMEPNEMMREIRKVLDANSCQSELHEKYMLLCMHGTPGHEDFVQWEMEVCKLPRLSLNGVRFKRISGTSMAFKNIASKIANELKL
Chain of BMX (P51813 whole entry): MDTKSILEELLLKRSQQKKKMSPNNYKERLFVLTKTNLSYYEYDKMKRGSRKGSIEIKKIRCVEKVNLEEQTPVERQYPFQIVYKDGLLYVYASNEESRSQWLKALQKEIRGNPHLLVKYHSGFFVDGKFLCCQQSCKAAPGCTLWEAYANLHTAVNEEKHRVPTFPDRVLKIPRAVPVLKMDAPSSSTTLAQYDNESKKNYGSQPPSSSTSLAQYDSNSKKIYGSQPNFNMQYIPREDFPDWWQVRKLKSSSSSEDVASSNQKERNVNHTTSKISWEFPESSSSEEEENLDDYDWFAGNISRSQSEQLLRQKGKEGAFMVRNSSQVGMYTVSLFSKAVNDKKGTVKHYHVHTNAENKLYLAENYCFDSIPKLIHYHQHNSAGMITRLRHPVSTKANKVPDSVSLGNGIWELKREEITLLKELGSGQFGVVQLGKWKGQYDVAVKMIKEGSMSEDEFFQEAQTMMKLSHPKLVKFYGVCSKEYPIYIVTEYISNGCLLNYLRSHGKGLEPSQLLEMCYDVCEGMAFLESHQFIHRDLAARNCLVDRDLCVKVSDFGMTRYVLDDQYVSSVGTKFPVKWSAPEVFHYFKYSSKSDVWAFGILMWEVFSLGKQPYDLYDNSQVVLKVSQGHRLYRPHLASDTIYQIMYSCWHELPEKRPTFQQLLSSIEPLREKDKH
Chain of EPHB1 (P54762 whole entry): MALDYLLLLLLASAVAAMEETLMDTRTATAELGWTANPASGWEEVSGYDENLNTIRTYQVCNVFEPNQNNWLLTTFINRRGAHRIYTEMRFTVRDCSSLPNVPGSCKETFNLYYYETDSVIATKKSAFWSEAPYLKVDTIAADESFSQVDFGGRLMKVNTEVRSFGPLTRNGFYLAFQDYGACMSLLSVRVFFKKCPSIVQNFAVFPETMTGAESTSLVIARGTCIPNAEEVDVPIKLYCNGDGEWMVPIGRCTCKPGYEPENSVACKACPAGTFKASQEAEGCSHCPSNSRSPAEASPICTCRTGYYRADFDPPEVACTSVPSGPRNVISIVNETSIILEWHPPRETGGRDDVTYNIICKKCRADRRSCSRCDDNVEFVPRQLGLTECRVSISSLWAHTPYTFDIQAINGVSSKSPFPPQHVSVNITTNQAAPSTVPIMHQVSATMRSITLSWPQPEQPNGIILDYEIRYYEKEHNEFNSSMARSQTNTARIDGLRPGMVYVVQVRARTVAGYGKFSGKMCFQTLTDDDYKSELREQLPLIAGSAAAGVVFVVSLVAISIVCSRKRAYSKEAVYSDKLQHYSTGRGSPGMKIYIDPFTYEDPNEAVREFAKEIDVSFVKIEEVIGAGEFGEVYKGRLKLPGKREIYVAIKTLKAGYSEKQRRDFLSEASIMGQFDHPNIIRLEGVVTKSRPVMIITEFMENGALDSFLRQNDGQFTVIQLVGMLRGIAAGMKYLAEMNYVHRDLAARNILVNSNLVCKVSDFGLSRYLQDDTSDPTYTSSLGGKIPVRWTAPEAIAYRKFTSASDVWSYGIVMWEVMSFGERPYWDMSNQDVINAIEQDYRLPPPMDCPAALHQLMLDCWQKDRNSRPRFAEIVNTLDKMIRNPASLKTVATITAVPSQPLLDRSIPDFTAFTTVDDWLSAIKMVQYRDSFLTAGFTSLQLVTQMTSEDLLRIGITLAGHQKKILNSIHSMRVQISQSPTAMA
Chain of YES1 (P07947 whole entry): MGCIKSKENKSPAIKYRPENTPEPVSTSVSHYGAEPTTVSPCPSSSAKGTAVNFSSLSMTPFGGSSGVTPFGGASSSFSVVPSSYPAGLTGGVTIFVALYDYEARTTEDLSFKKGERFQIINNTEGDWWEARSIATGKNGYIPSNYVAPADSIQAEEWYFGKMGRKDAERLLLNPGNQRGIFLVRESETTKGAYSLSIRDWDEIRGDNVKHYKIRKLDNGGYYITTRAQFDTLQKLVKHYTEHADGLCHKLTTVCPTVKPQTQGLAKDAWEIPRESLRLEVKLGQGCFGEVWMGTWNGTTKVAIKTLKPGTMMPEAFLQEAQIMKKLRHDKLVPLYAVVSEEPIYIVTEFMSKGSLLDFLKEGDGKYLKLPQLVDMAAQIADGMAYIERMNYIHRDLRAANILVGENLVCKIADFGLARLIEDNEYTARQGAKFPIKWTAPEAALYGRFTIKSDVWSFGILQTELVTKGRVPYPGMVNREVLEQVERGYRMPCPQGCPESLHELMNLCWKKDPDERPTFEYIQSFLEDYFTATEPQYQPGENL
Chain of TYRO3 (RSE) (Q06418 whole entry): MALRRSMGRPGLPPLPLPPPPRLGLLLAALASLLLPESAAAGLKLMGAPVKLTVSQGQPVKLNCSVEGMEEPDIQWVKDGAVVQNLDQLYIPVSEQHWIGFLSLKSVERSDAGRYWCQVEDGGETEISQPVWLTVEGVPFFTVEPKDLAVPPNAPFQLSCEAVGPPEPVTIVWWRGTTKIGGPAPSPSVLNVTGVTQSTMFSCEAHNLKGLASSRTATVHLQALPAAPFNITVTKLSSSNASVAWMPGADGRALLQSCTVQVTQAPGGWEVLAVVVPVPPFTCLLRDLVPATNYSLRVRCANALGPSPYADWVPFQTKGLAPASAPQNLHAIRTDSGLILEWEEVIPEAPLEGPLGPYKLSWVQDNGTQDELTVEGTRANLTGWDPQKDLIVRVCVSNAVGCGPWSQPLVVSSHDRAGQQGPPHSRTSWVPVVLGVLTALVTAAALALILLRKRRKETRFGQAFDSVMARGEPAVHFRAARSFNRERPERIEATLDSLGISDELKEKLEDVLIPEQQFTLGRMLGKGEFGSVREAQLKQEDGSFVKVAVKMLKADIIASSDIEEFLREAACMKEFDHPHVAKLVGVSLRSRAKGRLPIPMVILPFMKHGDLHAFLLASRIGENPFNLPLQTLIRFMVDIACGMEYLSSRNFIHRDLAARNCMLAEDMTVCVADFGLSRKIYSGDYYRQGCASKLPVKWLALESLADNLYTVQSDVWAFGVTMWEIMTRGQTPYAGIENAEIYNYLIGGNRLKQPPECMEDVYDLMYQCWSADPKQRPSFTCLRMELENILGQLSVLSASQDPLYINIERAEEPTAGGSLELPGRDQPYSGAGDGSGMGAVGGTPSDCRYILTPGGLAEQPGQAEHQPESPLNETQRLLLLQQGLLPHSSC
T1 sequence (P54646 whole entry): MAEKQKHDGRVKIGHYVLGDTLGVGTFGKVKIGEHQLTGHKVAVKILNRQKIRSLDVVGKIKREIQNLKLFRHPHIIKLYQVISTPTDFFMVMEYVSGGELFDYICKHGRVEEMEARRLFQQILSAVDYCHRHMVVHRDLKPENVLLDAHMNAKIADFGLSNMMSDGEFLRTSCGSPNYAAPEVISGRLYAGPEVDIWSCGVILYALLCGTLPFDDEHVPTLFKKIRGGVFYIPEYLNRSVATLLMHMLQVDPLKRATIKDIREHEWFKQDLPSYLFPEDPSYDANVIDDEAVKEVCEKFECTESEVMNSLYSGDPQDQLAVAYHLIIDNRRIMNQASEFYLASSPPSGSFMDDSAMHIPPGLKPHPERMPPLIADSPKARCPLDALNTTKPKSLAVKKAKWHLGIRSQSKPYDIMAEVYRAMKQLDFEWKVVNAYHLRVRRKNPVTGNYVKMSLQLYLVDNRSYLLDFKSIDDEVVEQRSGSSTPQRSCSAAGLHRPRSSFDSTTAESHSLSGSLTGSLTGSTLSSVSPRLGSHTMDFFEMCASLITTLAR
T1 sequence (P54619 whole entry partner): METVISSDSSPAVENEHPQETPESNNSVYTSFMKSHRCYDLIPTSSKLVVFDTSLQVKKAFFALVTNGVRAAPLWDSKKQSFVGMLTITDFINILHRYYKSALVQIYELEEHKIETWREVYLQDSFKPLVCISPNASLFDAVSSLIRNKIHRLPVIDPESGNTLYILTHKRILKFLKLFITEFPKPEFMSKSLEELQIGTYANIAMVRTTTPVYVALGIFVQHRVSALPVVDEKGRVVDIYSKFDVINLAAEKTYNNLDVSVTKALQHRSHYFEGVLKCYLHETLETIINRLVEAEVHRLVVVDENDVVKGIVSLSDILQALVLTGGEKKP
T1 sequence (Q9Y478 whole entry partner): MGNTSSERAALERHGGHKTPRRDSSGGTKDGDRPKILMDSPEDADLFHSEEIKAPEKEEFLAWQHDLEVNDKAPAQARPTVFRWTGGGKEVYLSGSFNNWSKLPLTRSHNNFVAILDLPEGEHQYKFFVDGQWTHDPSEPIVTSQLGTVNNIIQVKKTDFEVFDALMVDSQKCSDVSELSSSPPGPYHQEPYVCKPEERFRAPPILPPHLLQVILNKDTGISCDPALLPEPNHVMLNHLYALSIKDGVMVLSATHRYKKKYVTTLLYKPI

## C=CCNc1ncnc2ccc(Br)cc12 [SMER28]
FER
  inhibition at 10 µM: 16%
PRKCA (PKC alpha)
  inhibition at 10 µM: 10%
BTK
  inhibition at 10 µM: 8%
BMX
  inhibition at 10 µM: 11%
SRPK1
  inhibition at 10 µM: 5%
LCK
  inhibition at 10 µM: 19%
CDK1/cyclin B
  inhibition at 10 µM: 22%
FLT1 (VEGFR1)
  inhibition at 10 µM: 9%
EPHB1
  inhibition at 10 µM: 6%
AMPK A2/B1/G1
  inhibition at 10 µM: 12%
NTRK1 (TRKA)
  inhibition at 10 µM: 33%
KIT
  inhibition at 10 µM: 25%
ALK
  inhibition at 10 µM: 25%
CDK2/cyclin A
  inhibition at 10 µM: 15%
PIK3C3 (hVPS34)
  inhibition at 10 µM: 12%
MARK2
  inhibition at 10 µM: 9%
LYN A
  inhibition at 10 µM: 20%
ROCK1
  inhibition at 10 µM: -13%
FYN
  inhibition at 10 µM: 9%
RET V804M
  inhibition at 10 µM: 38%
DNA-PK
  inhibition at 10 µM: 37%
TYRO3 (RSE)
  inhibition at 10 µM: 11%
CAMK2B (CaMKII beta)
  inhibition at 10 µM: 4%
FGFR1
  inhibition at 10 µM: 27%
MAPK8 (JNK1)
  inhibition at 10 µM: -2%
YES1
  inhibition at 10 µM: 13%
